Data taken from publication PMC12040169 (PLOS Biology, 2025).

Assay: in vitro
Details: human, hela cells, % viability

Compound | viability at 28.5 h, 10 µM | viability at 28.5 h, 10 µM (bulk resorufin, single well)
N#C/C(=C/c1cc(Cl)c(OCc2ccc([N+](=O)[O-])cc2)c(Cl)c1)c1ccc(C(=O)O)cc1 [CBK269098] | 105% | –
O=C(C1CCCC1)N1CCCC(c2nccnc2-c2cccc(C(F)(F)F)c2)C1 (stereo not drawn) [CBK286221] | 110% | –
CSc1nsc(NC(=O)Nc2ccccc2)n1 [CBK027286] | 97.9% | –
CN(C)c1nc(N(C)C)n(C(=O)c2cccs2)n1 [CBK019805] | 99.3% | –
COc1ccc2[nH]cc(CCNC(=O)c3ccc(-c4cccc(N(C)C)c4)nc3N(C)C(C)=O)c2c1 [CBK076589] | 101% | –
CC(Sc1ccc(Br)c2cccc(C(=O)O)c12)C(=O)O (stereo not drawn) [CBK266226] | 97.4% | –
COc1cc(CNC(C)(C)CO)ccc1OCc1ccc(Cl)cc1 [CBK266433C] | 92% | –
Cc1cc(C(=O)N2CCN(c3ncccn3)CC2)n[nH]1 [CBK144526] | 111% | –
COC(=O)CC1(C)C(=O)CCC2(C)C1=CCc1ccccc12 (stereo not drawn) [CBK006547] | 105% | –
Cc1ccc2nsnc2c1NC(=O)Cc1cccc2ccccc12 [CBK266279] | 98.8% | –
Cc1ccc(C(=O)CC(C(=O)O)c2c(C)[nH]c3ccccc23)cc1 (stereo not drawn) [CBK269337] | 96.1% | –
COc1cc(OC)cc(C(=O)Nc2cccc(-c3nc4ccccc4o3)c2)c1 [CBK097706] | 95.5% | –
CCN1CCC(Oc2nccnc2OCCN2CCOCC2)CC1 [CBK082931] | 94.6% | –
O=C(Nc1ccc(Cc2ccncc2)cc1)c1sc2c([N+](=O)[O-])cccc2c1Cl [CBK269635] | 97.1% | –
c1ccc2c(c1)OCC(COc1cncc(OC3CCN(CC4CCCCC4)C3)n1)O2 (stereo not drawn) [CBK084387] | 109% | –
CSc1ccc(CNC(=O)c2sc3nc(C)nc(N4CCCC4)c3c2C)cc1 [CBK294432] | 96.8% | –
CCOC(=O)c1cc(-c2cccc(Cl)c2)oc1C [CBK045775] | 104% | –
CCOC(=O)C1(c2ccccc2)CCN(C(=O)Cc2ccsc2)CC1 [CBK132172] | – | 93%
CCn1cc(NC(=O)CC(C)(O)c2ccccc2)ccc1=O (stereo not drawn) [CBK304507] | 91.7% | –
CC1CCN(C(=O)C2CC(=O)N(c3ccc(C(=O)O)cc3)C2)CC1 (stereo not drawn) [CBK286568] | 87.6% | –
Cn1cc(CN2CCCN(C(=O)CCCc3ccccn3)CC2)cn1 [CBK305347] | 87.3% | –
COCCCNC(=O)C1CCCN(c2nc3c(-c4ccccc4)csc3c(=O)[nH]2)C1 (stereo not drawn) [CBK215498] | 94% | –

Compound | viability at 28.5 h, 10 µM | viability at 28.5 h, 10 µM (bulk resorufin, single well)
CCn1c(C(C)C)nc2cc(NC(=O)Cc3c(C)noc3C)ccc21 [CBK281527] | 90.3% | –
Cn1ccnc1CNc1nc(C(C)(C)C)nc2c1cnn2C [CBK306894] | 100% | –
CCOC(=O)c1[nH]c2ccccc2c1NS(=O)(=O)c1cccc(Cl)c1C [CBK047423] | 88.9% | –
CC(=O)Nc1cccc(-n2ncc(-c3cccnc3)n2)c1 [CBK112811] | 98.7% | –
O=C(CSc1ccc(Cl)cc1)Nc1cc(C(=O)O)cc(C(=O)O)c1 [CBK266531] | 98.8% | –
Cn1c(=O)n(CCN2CCOCC2)c(=O)c2c1nc1n2CCN1c1ccc(Oc2ccccc2)cc1 [CBK269202] | 91.4% | –
Cc1cc(OC(=O)C2CCC(CNC(=O)OC(C)(C)C)CC2)c2c3c(c(=O)oc2c1)CCC3 (stereo not drawn) [CBK083583] | 103% | –
CCOC(=O)CNS(=O)(=O)c1cccc(Cl)c1C [CBK004702] | 103% | –
CN(C)C1CCN(C(=O)c2ccc(-c3cnc(OCC4CCN(C(=O)OC(C)(C)C)CC4)nc3)cc2)C1 (stereo not drawn) [CBK169767] | 113% | –
Cc1ccc(S(=O)(=O)Nc2c(C(=O)O)sc3ncccc23)cc1[N+](=O)[O-] [CBK049983] | 91.6% | –
O=C(NC(Cc1cccs1)c1nccs1)c1cc[nH]n1 (stereo not drawn) [CBK285052] | 87.4% | –
COc1ccccc1C1CCC(NCCCC(=O)c2ccc(F)cc2)CC1 (stereo not drawn) [CBK015965C] | 105% | –
c1ccc2c(c1)OCC(COc1nccnc1OC1CCNCC1)O2 (stereo not drawn) [CBK070766T] | 102% | –
Oc1cccc(-c2cn3ccnc3c(NC3CC3)n2)c1 [CBK038076] | 101% | –
CCNC(=O)N(C)c1c(CC)nc2ccc(C(=O)N3CCN(C(C)=O)CC3)cn12 [CBK146362] | 104% | –
Cc1csc(Sc2nccc(C(F)(F)F)n2)n1 [CBK093770] | 91.9% | –
CN(C1CCCCC1)C1CCN(CCc2ccccc2)CC1 [CBK261918] | 97.5% | –
N#Cc1ccc(CN2CCN(S(=O)(=O)c3ccc(-c4ccccc4)cc3)CC2)cc1 [CBK062752] | 105% | –
Cc1ccc(-c2nnc3sc(-c4cnccn4)nn23)cc1 [CBK268258] | 98.9% | –
CC(C)(C)c1nnc([C@H]2CCN(C(=O)CCC(=O)O)C2)o1 [CBK289406] | 96.1% | –
C[S+]([O-])CCNC(=O)Cn1c(-c2cccs2)cc2cccnc21 (stereo not drawn) [CBK282556] | 89.3% | –
O=C(N[C@@H]1CNCCC[C@H]1O)c1ccc(OCCN2CCOCC2)cc1 [CBK289065] | 98.3% | –

Compound | viability at 28.5 h, 10 µM | viability at 28.5 h, 10 µM (bulk resorufin, single well)
O=C(NC(=S)Nc1cccc(-c2nc3ncccc3o2)c1)c1cc([N+](=O)[O-])ccc1N1CCOCC1 [CBK268756] | 92.7% | –
CCCOC1CCCN(C(=O)c2cncc(F)c2)C1 (stereo not drawn) [CBK304623] | 95% | –
O=C(CN1CCCCCC1)N/N=C/c1ccccc1Cl [CBK261589] | 89.4% | –
Nc1cccnc1OCCN1CCN(CC(=O)N2CCCCc3ccccc32)CC1 [CBK007764] | 95.1% | –
CCCC(NC(=O)Nc1ccnn1CC(C)C)c1nccn1C (stereo not drawn) [CBK307444] | 92.7% | –
Cc1cc2c(o1)CCc1sc(N(C)C(=O)C3CC(=O)N(C)C3)nc1-2 (stereo not drawn) [CBK283980] | 75.6% | –
CSCc1nc(CS(=O)(=O)Cc2cccc(C(F)(F)F)c2)no1 [CBK023617] | 87.8% | –
FC(F)(F)c1cnc(Sc2c[nH]nn2)c(Cl)c1 [CBK007252] | 93.3% | –
O=C1NCCN(C(=O)c2cccc3cccnc23)C1Cc1ccc(-c2cccs2)cc1 (stereo not drawn) [CBK285809] | 81.4% | –
Nc1nc(N)c([C@H]2C[C@@H](O)[C@@H](CO)O2)nc1Cl [CBK201326] | 103% | –
COc1ccc(-c2nnc(SCC(=O)Nc3cc(C(C)(C)C)no3)n2C2CCCCC2)cc1OC [CBK295131] | 105% | –
CCOC(=O)N1CCC(NS(=O)(=O)c2c(C)noc2C)CC1 [CBK045465] | 102% | –
COc1ccccc1Cc1cccc(C2CCCN2C(=O)CCc2ccc(F)cc2)n1 (stereo not drawn) [CBK286238] | 101% | –
C=CCOc1ccc(-c2nc3s/c(=C4\C(=O)N(Cc5ccccc5F)c5ccccc54)c(=O)n3n2)cc1 [CBK266615] | 108% | –
CC(C)(CC(=O)Nc1sc2c(c1C(=O)O)CCC2)CC(=O)Nc1sc2c(c1C(=O)O)CCC2 [CBK296100] | 92.3% | –
CSCCN1CCN(c2nccnc2OCc2cccnc2)CC1 [CBK083146] | 91% | –
CCn1c(CC2CCN(c3ncc(C#N)c(N)n3)CC2)nn(C)c1=O [CBK306788] | 93.3% | –
Oc1cccc(Sc2nc3ccccc3nc2C(F)(F)F)c1 [CBK093780] | 109% | –
COc1ccccc1NC(=O)Cn1cc(C(=O)c2cccs2)c2ccccc21 [CBK268256] | 98.6% | –
COC(=O)c1ccc(NC(=O)COn2nnc3ccc([N+](=O)[O-])cc32)cc1 [CBK267106] | 94.3% | –
Cc1nn(C)c(N2CCNCC2)c1NC(=O)COc1ccccc1 [CBK050249T] | 103% | –
S=C(Nc1ccc(Nc2ccccc2)cc1)N1CCN(C/C=C/c2ccccc2)CC1 [CBK266149] | 102% | –

Compound | viability at 28.5 h, 10 µM | viability at 28.5 h, 10 µM (bulk resorufin, single well)
C#C[C@H]1C[N@@]2CC[C@H]1C[C@@H]2CNC(=O)Nc1cccc(C#N)c1 [CBK288754] | 97.2% | –
O=[N+]([O-])c1ccc(Oc2cccc3cccnc23)c(F)c1 [CBK002750] | 60.4% | –
O=C(Nc1cc(Cl)cc(Cl)c1)c1csnn1 [CBK057759] | 88.1% | –
O=C(Nc1cccc2cccnc12)c1ccc([N+](=O)[O-])o1 [CBK268007] | 61.1% | –
OCc1ccccc1-c1cncc(NCc2ccc3c(c2)OCO3)n1 [CBK065318] | 89.2% | –
COc1ccc(NS(=O)(=O)c2ccc(C)cc2)cn1 [CBK010484] | 85.8% | –
COc1cc(OC)nc(C(NC(=O)C2CCN(Cc3nccs3)CC2)c2ccc(Cl)cc2)n1 (stereo not drawn) [CBK148217] | 85.8% | –
CC(=O)Nc1ccc(-c2cccc(COC3CCN(C(=O)Cc4c[nH]cn4)CC3)c2)cc1 [CBK149497] | 103% | –
CC1CCN(C(=O)CSc2ccc3nnc(-c4ccccc4)n3n2)CC1 [CBK287512] | 77.9% | –
O=c1[nH]c(=O)c2cc(S(=O)(=O)N3CCCCC3CN3CCCCC3)ccc2[nH]1 (stereo not drawn) [CBK286393] | 83.5% | –
COc1ccc(NC(=O)CC(CN(C)Cc2ccccc2)C(=O)O)cc1 (stereo not drawn) [CBK286854] | 93.5% | –
Cc1ccc(OCC(O)Cn2c(=N)n(Cc3ccccc3)c3ccccc32)cc1 (stereo not drawn) [CBK266293C] | 91.7% | –
CCOc1cccc(-c2ccc(Nc3cccc(NC(=O)c4ccncc4)c3)nc2)c1 [CBK037739] | 49.4% | –
CCC(C)[C@H](NC(=O)N1CCN(C(=O)c2cc3ccccc3[nH]2)CC1)C(=O)O (stereo partly drawn) [CBK286725] | 91% | –
O=C1CCCN1CCOc1nccnc1/C=C/c1ccccc1 [CBK106875] | 92.4% | –
CCOc1ccccc1CCNS(=O)(=O)c1ccc(Cl)c(Cl)c1 [CBK043610] | 95.5% | –
CCOC(=O)c1cc(S(=O)(=O)NC2CCN(C(=O)OCC)CC2)cn1C [CBK304665] | 90.1% | –
Cc1cc(-c2cn3cc(C(=O)NCCCCO)nc3c(=O)n2C)c(C)o1 [CBK307037] | 106% | –
Cc1noc2nc(C3CCN(C(=O)C4CC4)CC3)cc(C(F)F)c12 [CBK285306] | 95.8% | –
CCOC(=O)c1cnn(C2CCCN(Cc3ccsc3)C2)c1 (stereo not drawn) [CBK305112] | 94.9% | –
CCN1CCN(c2ccc3nnc(C(C)C)n3n2)CC1 [CBK287974] | 88.3% | –
